Reference: US8003797B2, “Pyridine carboxamide orexin receptor antagonists” (Merck Sharp & Dohme Corp., priority 2007, dated 2011)

Target: T1, OX2R (Homo sapiens, UniProt O43614)
T1 construct: expressed in transfected cells; host or cells: CHO cells (membranes)
T1 sequence (O43614 1-444): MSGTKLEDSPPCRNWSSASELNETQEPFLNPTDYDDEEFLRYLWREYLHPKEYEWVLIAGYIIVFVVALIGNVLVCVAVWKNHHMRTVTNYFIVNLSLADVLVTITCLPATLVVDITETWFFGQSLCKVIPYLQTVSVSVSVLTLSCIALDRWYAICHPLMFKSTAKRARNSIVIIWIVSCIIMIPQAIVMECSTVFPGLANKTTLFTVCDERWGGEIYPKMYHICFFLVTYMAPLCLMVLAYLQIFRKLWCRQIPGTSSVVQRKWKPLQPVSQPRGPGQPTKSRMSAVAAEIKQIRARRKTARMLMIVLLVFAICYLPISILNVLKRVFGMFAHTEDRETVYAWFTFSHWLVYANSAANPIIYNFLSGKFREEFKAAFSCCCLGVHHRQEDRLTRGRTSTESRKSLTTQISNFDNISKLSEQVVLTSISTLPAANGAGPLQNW
Assay: radioligand binding assay, OX2 receptor
Conditions: membranes prepared from CHO cells expressing the OX2 receptor
Procedure: In a typical experiment the OX1 and OX2 receptor antagonistic activity of the compounds of the present invention was determined in accordance with the following experimental method. For intracellular calcium measurements, Chinese hamster ovary (CHO) cells expressing the rat orexin-1 receptor or the human orexin-2 receptor, are grown in Iscove's modified DMEM containing 2 mM L-glutamine, […], 1% hypoxanthine-thymidine supplement, 100 U/ml penicillin, 100 ug/ml streptomycin and 10% heat-inactivated fetal calf serum (FCS). The cells are seeded at 20,000 cells/well into Becton-Dickinson black 384-well clear bottom sterile plates coated with poly-D-lysine. All reagents were from GIBCO-Invitrogen Corp. The seeded plates are incubated overnight at 37° C. and 5% CO2. Ala-6,12 human orexin-A as the agonist is prepared as a 1 mM stock solution in 1% bovine serum albumin (BSA) and diluted in assay buffer (HBSS containing 20 mM HEPES, 0.1% BSA and 2.5 mM probenecid, pH7.4) for use in the assay at a final concentration of 70 pM. Test compounds are prepared as 10 mM stock solution in DMSO, then diluted in 384-well plates, first in DMSO, then assay buffer. On the day of the assay, cells are washed 3 times with 100 ul assay buffer and then incubated for 60 min (37° C., 5% CO2) in 60 ul assay buffer containing 1 uM Fluo-4AM ester, 0.02% pluronic acid, and 1% BSA. The dye loading solution is then aspirated and cells are washed 3 times with 100 ul assay buffer. 30 ul of that same buffer is left in each well. Within the Fluorescent Imaging Plate Reader (FLIPR, Molecular Devices), test compounds are added to the plate in a volume of 25 ul, incubated for 5 min and finally 25 ul of agonist is added. Fluorescence is measured for each well at 1 second intervals for 5 minutes and the height of each fluorescence peak is compared to the height of the fluorescence peak induced by 70 pM Ala-6,12 orexin-A with buffer in place of antagonist. For each antagonist, IC50 value (the concentration of compound needed to inhibit 50% of the agonist response) is determined. Alternatively, compound potency can be assessed by a radioligand binding assay (described in Bergman et. al. Bioorg. Med. Chem. Lett. 2008, 18, 1425-1430) in which the inhibition constant (Ki) is determined in membranes prepared from CHO cells expressing either the OX1 or OX2 receptor. The intrinsic orexin receptor antagonist activity of a compound which may be used in the present invention may be determined by these assays.

Compound “5-(3,5-chloromethylphenyl)-N-[(1,4-dimethyl-1,2,3,4-tetrahydroquinoxalin-6-yl)methyl]-2-(1-methyl-1H-pyrazol-4-yl)nicotinamide [2-14]” has a Ki of 0.15 nM.

In the case of `COc1cc(CNC(=O)c2cc(-c3cc(C)cc(C)c3)cnc2-c2cnn(C)c2)cnc1OC` [1-13, N-[(5,6-dimethoxypyridin-3-yl)methyl]-5-(3,5-dimethylphenyl)-2-(1-methyl-1H-pyrazol-4-yl)nicotinamide], the Ki is reported as 4.8 nM.

With `Cc1[nH]c2cc(CNC(=O)c3cc(-c4cc(Cl)cc(Cl)c4)cnc3-c3cnn(C)c3)ccc2c1C` [1-14, 5-(3,5-dichlorophenyl)-N-[(2,3-dimethyl-1H-indol-6-yl)methyl]-2-(1-methyl-1H-pyrazol-4-yl)nicotinamide] the Ki was 0.07 nM.

`COc1ccc(CNC(=O)c2cc(-c3cncc(C)c3)cnc2-c2cccc(F)c2)nc1OC` [3-7, N-[(5,6-dimethoxypyridin-2-yl)methyl]-6-(3-fluorophenyl)-5′-methyl-3,3′-bipyridine-5-carboxamide] gave a Ki of 0.32 nM.

For `COc1ccc(CNC(=O)c2cc(-c3cncc(Cl)c3)cnc2-c2ccccc2)nc1OC` [3-15, 5′-chloro-N-[(5,6-dimethoxypyridin-2-yl)methyl]-6-phenyl-3,3′-bipyridine-5-carboxamide], the Ki was 0.45 nM.

For `COc1ccc(CNC(=O)c2cc(-c3cc(C)cc(Cl)c3)cnc2N2CCCC2)cc1OC` [4-5, 5-(3-chloro-5-methylphenyl)-N-(3,4-dimethoxybenzyl)-2-pyrrolidin-1-ylnicotinamide], the Ki was 0.45 nM.

Work on `COc1ccc(CNC(=O)c2cc(-c3cncc(C)c3)cnc2N2CCOCC2)nc1OC` [4-13, N-[(5,6-dimethoxypyridin-2-yl)methyl]-5′-methyl-6-morpholin-4-yl-3,3′-bipyridine-5-carboxamide] yielded a Ki of 1.1 nM.

`COc1ccc(CNC(=O)c2cc(-c3cncc(C)c3)cnc2-n2ccc(C)n2)cc1Cl` [5-11, N-(3-chloro-4-methoxybenzyl)-5′-methyl-6-(3-methyl-1H-pyrazol-1-yl)-3,3′-bipyridine-5-carboxamide] was tested, and the Ki was 0.95 nM.

`COc1ccc(CNC(=O)c2cc(-c3cncc(C)c3)cnc2C2CCCC2)cc1OC` [6-5, 6-cyclopentyl-N-(3,4-dimethoxybenzyl)-5-methyl-3,3′-bipyridine-5-carboxamide] showed a Ki of 2.3 nM.
